Experiments:
DGKζ = DGKζ (Homo sapiens (Human), UniProt Q13574); assay: Biochemical DGK IC50 assay (ADP-Glo, lipid micelle substrate), DGKζ; settings: full length DGKζ 0.5 nM, ATP 140 μM, DAG 80 μM
Summary of the method: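 ADP-Glo luminescence measured ADP made in a 1 h room-temperature reaction. The enzyme was Sf9-expressed, purified full-length human DGKζ, and the substrate was DAG/PS micelles. Assay buffer held 50 mM HEPES, 10 mM MgCl2, 0.01 mM CaCl2, 0.1 mM Na3VO4 and 0.01% BSA. IC50 was derived from activity inhibition over a compound concentration series.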

DGKα = DGKα (Homo sapiens (Human), UniProt P23743); assay: Biochemical DGK IC50 assay (ADP-Glo, lipid micelle substrate), DGKα; settings: full length DGKα […], ATP 140 μM, DAG 80 μM; further: full length DGKα 7.5 nM
Summary of the method: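 Luminescent ADP-Glo detection followed a 1 h room-temperature reaction of full-length DGKα on DAG/PS micelles, in HEPES buffer with 10 mM MgCl2, 0.01 mM CaCl2, 0.1 mM Na3VO4, BSA and Tween-20. IC50 derived from inhibition across increasing compound concentrations.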

DGKα, sequence (P23743 whole entry): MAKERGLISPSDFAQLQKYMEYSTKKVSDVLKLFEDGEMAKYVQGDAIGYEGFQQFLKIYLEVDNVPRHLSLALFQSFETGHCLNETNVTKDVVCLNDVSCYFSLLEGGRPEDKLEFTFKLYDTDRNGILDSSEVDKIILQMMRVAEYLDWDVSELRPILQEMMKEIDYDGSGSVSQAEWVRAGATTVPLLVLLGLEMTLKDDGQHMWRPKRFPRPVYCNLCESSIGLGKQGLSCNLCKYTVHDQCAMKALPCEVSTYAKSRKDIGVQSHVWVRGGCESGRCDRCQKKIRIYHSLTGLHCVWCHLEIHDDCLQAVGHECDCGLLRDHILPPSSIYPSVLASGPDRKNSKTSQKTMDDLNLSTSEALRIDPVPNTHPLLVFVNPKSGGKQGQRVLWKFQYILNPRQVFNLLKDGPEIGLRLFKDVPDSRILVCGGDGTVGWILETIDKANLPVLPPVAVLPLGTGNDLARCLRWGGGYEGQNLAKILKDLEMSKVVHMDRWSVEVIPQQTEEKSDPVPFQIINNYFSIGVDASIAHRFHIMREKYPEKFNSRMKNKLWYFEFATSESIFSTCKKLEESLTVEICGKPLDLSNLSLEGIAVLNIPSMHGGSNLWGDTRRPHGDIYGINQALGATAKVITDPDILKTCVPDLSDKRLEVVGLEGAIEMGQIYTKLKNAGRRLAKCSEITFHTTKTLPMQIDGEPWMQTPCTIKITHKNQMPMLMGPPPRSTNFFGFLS
DGKζ, sequence (Q13574 other isoform, or with tags, fused parts or gaps): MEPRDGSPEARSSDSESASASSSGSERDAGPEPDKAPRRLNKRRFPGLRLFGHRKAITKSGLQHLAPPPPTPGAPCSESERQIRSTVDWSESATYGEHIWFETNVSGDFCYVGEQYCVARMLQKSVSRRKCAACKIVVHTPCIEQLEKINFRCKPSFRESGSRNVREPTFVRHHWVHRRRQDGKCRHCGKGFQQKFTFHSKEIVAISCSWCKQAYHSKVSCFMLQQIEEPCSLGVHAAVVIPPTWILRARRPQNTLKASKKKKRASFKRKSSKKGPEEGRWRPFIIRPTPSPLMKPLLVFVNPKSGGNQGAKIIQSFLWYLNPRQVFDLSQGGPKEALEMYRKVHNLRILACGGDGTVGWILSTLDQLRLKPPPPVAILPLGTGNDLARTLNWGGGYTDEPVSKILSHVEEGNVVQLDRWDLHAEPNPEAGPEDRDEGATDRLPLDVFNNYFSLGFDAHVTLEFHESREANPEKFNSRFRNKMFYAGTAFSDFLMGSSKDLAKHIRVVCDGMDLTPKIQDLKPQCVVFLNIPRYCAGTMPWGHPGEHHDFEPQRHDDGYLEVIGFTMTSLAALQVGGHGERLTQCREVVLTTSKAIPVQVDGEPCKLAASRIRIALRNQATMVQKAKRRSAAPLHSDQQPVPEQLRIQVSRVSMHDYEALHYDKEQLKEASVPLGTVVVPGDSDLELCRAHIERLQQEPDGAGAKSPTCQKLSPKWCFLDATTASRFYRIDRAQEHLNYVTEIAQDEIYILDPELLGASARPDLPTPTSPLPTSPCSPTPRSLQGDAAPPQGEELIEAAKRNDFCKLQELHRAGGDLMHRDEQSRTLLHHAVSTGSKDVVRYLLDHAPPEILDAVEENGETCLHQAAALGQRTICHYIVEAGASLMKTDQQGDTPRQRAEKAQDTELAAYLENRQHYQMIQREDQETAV

IC50 (DGKζ)	IC50 (DGKα)	Compound
5430 nM	2690 nM	CCC(c1ccn2nc(C)cc2n1)N1C[C@H](C)N(c2cc(=O)n(C)c3cn(CC#N)nc23)C[C@H]1CC (single isomer, unassigned) [Compound A171b]
45 nM	93 nM	CC[C@H]1CN(C(C)c2ccc3nc(C)sc3n2)[C@H](CC)CN1c1c(C#N)c(=O)n(C)c2cn(CC#N)nc12 (single isomer, unassigned) [Compound A140b]
1350 nM	1580 nM	[2H]C([2H])([2H])C(c1ccc2nc(C)sc2n1)N1C[C@H](CC)N(c2cc(=O)n(C([2H])([2H])[2H])c3cn(CC#N)nc23)C[C@H]1CC (single isomer, unassigned) [Compound A142a]
1520 nM	3280 nM	CC[C@H]1CN(C(C)c2ccc3nc(C)sc3n2)[C@H](CC)CN1c1cc(=O)n(C)c2cn(CC#N)nc12 (single isomer, unassigned) [Compound A133a]
39 nM	153 nM	CC[C@H]1CN(C(C)c2ccc3nc(COC)sc3n2)[C@H](CC)CN1c1cc(=O)n(C)c2cn(CC#N)nc12 (single isomer, unassigned) [Compound A143b]
8850 nM	6470 nM	CC[C@H]1CN(C(C)c2ccc3ncc(Cl)n3n2)[C@H](CC)CN1c1nc(=O)n(C)c2cn(CC#N)nc12 (single isomer, unassigned) [Compound A174a]
552 nM	1020 nM	CC[C@H]1CN(C(C)c2cc3c(cn2)OCC3)[C@H](CC)CN1c1cc(=O)n(C)c2cn(CC#N)nc12 (stereo partly drawn) [Compound A196, 2-(7-((2S,5R)-4-(1-(2,3-dihydrofuro[2,3-c]pyridin-5-yl)ethyl)-2,5-diethylpiperazin-1-yl)-4-methyl-5-oxo-4,5-dihydro-2H-pyrazolo[4,3-b]pyridin-2-yl)acetonitrile]
6490 nM	1250 nM	CC#CCn1cc2c(n1)c(N1C[C@@H](CC)N(C(C)c3ccc4nc(C)sc4c3)C[C@@H]1C)cc(=O)n2C (single isomer, unassigned) [Compound A115b]
11 nM	111 nM	CC[C@H]1CN(C(C)c2ccc3ncsc3c2)[C@H](CC)CN1c1nc(=O)n(C)c2cn(CC#N)nc12 (stereo partly drawn) [Compound A123, 2-(7-((2S,5R)-4-(1-(benzo[d]thiazol-6-yl)ethyl)-2,5-diethylpiperazin-1-yl)-4-methyl-5-oxo-4,5-dihydro-2H-pyrazolo[4,3-d]pyrimidin-2-yl)acetonitrile]
1410 nM	15900 nM	CC(c1cc2c(cc1F)OCC(C)(C)O2)N1C[C@H](C)N(c2cc(=O)n(C)c3cn(CC#N)nc23)C[C@H]1C (single isomer, unassigned) [Compound A179a]
178 nM	470 nM	CC[C@H]1CN(C(C)c2nc3cccnc3s2)[C@H](CC)CN1c1cc(=O)n(C)c2cn(CC#N)nc12 (stereo partly drawn) [Compound A181, 2-(7-((2S,5R)-2,5-diethyl-4-(1-(thiazolo[5,4-b]pyridin-2-yl)ethyl)piperazin-1-yl)-4-methyl-5-oxo-4,5-dihydro-2H-pyrazolo[4,3-b]pyridin-2-yl)acetonitrile]
694 nM	4480 nM	CC[C@H]1CN(C(C)c2cc3sc(C)nc3cc2F)[C@H](CC)CN1c1nc(=O)n(C)c2cn(CC#N)nc12 (single isomer, unassigned) [Compound A128b]
65.5 nM	45 nM	CC[C@H]1CN(C(C)c2ccn3nc(C)cc3n2)[C@H](CC)CN1c1cc(=O)n(C)c2cn(CC#N)nc12 (single isomer, unassigned) [Compound A152b]
1120 nM	40 nM	CC[C@H]1CN(C(C)c2ccn3nccc3c2)[C@H](CC)CN1c1nc(=O)n(C)c2cn(CC#N)nc12 (single isomer, unassigned) [Compound A159b]
1450 nM	291 nM	CC[C@H]1CN(C(C)c2ccc(C(=O)N3CCC(OC)CC3)cc2)[C@H](CC)CN1c1cc(=O)n(C)c2cn(CC#N)nc12 (single isomer, unassigned) [Compound A194a]
18 nM	32 nM	CC[C@H]1CN(C(C)c2ccn3ncc(F)c3n2)[C@H](CC)CN1c1cc(=O)n(C)c2cn(CC#N)nc12 (single isomer, unassigned) [Compound A161b]
1180 nM	2450 nM	CC[C@H]1CN(C(C)c2cn3ncccc3n2)[C@H](CC)CN1c1cc(=O)n(C)c2cn(CC#N)nc12 (stereo partly drawn) [Compound A180, 2-(7-((2S,5R)-2,5-diethyl-4-(1-(imidazo[1,2-b]pyridazin-2-yl)ethyl)piperazin-1-yl)-4-methyl-5-oxo-4,5-dihydro-2H-pyrazolo[4,3-b]pyridin-2-yl)acetonitrile]

Second part, the compound before the results:

Compound	IC50 (DGKζ)	IC50 (DGKα)
CC[C@H]1CN(C(C)c2cc3scnc3cn2)[C@H](CC)CN1c1cc(=O)n(C)c2cn(CC#N)nc12 (stereo partly drawn) [Compound A97, 2-(7-((2S,5R)-2,5-diethyl-4-(1-(thiazolo[4,5-c]pyridin-6-yl)ethyl)piperazin-1-yl)-4-methyl-5-oxo-4,5-dihydro-2H-pyrazolo[4,3-b]pyridin-2-yl)acetonitrile]	256 nM	502 nM
CC[C@H]1CN(C(C)c2ccc3ncoc3c2)[C@H](CC)CN1c1cc(=O)n(C)c2cn(CC#N)nc12 (single isomer, unassigned) [Compound A84b]	3180 nM	1170 nM
CC[C@H]1CN(C(C)c2ccc(OC3CC3)cc2)[C@H](CC)CN1c1cc(=O)n(C)c2cn(CC#N)nc12 (stereo partly drawn) [Compound A32, 2-(7-((2S,5R)-4-(1-(4-cyclopropoxyphenyl)ethyl)-2,5-diethylpiperazin-1-yl)-4-methyl-5-oxo-4,5-dihydro-2H-pyrazolo[4,3-b]pyridin-2-yl)acetonitrile]	244 nM	183 nM
CC[C@H]1CN(C(C)c2ccc(OC)c(C)c2)[C@H](CC)CN1c1cc(=O)n(C)c2cn(CC#N)nc12 (stereo partly drawn) [Compound A9, 2-(7-((2S,5R)-2,5-diethyl-4-(1-(4-methoxy-3-methylphenyl)ethyl)piperazin-1-yl)-4-methyl-5-oxo-4,5-dihydro-2H-pyrazolo[4,3-b]pyridin-2-yl)acetonitrile]	339 nM	2110 nM
CC[C@H]1CN(C(C)c2ccc(C)c(COC)n2)[C@H](CC)CN1c1cc(=O)n(C)c2cn(CC#N)nc12 (stereo partly drawn) [Compound A56, 2-(7-((2S,5R)-2,5-diethyl-4-(1-(6-(methoxymethyl)-5-methylpyridin-2-yl)ethyl)piperazin-1-yl)-4-methyl-5-oxo-4,5-dihydro-2H-pyrazolo[4,3-b]pyridin-2-yl)acetonitrile]	271 nM	2580 nM
CC[C@H]1CN(C(C)c2ccc(OC3COC3)cc2F)[C@H](CC)CN1c1cc(=O)n(C)c2cn(CC#N)nc12 (stereo partly drawn) [Compound A22, 2-(7-((2S,5R)-2,5-diethyl-4-(1-(2-fluoro-4-(oxetan-3-yloxy)phenyl)ethyl)piperazin-1-yl)-4-methyl-5-oxo-4,5-dihydro-2H-pyrazolo[4,3-b]pyridin-2-yl)acetonitrile]	465 nM	833 nM
CC[C@H]1CN(C(C)c2cc(F)c(C(=O)N(C)C)c(F)c2)[C@H](CC)CN1c1cc(=O)n(C)c2cn(CC#N)nc12 (single isomer, unassigned) [Compound A3a]	227 nM	13600 nM
CC[C@H]1CN(C(C)c2ccn3ccnc3c2)[C@H](CC)CN1c1cc(=O)n(C)c2cn(CC#N)nc12 (single isomer, unassigned) [Compound A80b]	6900 nM	3040 nM
CC#CCn1cc2c(n1)c(N1C[C@@H](CC)N(C(C)c3ccc(C4CC4)nc3)C[C@@H]1CC)cc(=O)n2C (single isomer, unassigned) [Compound A39a]	464 nM	33 nM
CC[C@H]1CN(C(C)c2ccc3c(n2)OCO3)[C@H](CC)CN1c1cc(=O)n(C)c2cn(CC#N)nc12 (single isomer, unassigned) [Compound A75a]	139 nM	74 nM
CC[C@H]1CN(C(C)c2ccc(OC)cc2)[C@H](CC)CN1c1cc(=O)n(C)c2cn(CC#N)nc12 (single isomer, unassigned) [Compound A34b]	2940 nM	596 nM
CC[C@H]1CN(C(C)c2ccc(CC3COC3)cc2)[C@H](CC)CN1c1cc(=O)n(C)c2cn(CC#N)nc12 (stereo partly drawn) [Compound A183, 2-(7-((2S,5R)-2,5-diethyl-4-(1-(4-(oxetan-3-ylmethyl)phenyl)ethyl)piperazin-1-yl)-4-methyl-5-oxo-4,5-dihydro-2H-pyrazolo[4,3-b]pyridin-2-yl)acetonitrile]	517 nM	48.2 nM
CC[C@H]1CN(C(C)c2ccc(OC)c(C)n2)[C@H](CC)CN1c1cc(=O)n(C)c2cn(CC#N)nc12 (stereo partly drawn) [Compound A55, 2-(7-((2S,5R)-2,5-diethyl-4-(1-(5-methoxy-6-methylpyridin-2-yl)ethyl)piperazin-1-yl)-4-methyl-5-oxo-4,5-dihydro-2H-pyrazolo[4,3-b]pyridin-2-yl)acetonitrile]	653 nM	2340 nM
CC[C@H]1CN(C(C)c2ccc(C(=O)N3CC(OC)C3)cc2)[C@H](CC)CN1c1cc(=O)n(C)c2cn(CC#N)nc12 (single isomer, unassigned) [Compound A1b]	> 10000 nM	734 nM
CC[C@H]1CN(C(C)c2ccc(OC)cn2)[C@H](CC)CN1c1cc(=O)n(C)c2cn(CC#N)nc12 (stereo partly drawn) [Compound A59, 2-(7-((2S,5R)-2,5-diethyl-4-(1-(5-methoxypyridin-2-yl)ethyl)piperazin-1-yl)-4methyl-5-oxo-4,5-dihydro-2H-pyrazolo[4,3-b]pyridin-2-yl)acetonitrile]	536 nM	137 nM
